The values below come from US20250388534A1 (SHENZHEN SHINEHIGH INNOVATION CO., LTD., priority 2022, published 2025).

One series deals with melanoma cells (B16). Nature of the series: Cytotoxicity test by melanoma cells (B16). The following applies: PC 10% DMSO. In kind it is cell-based.
Series [1] can be described thus: DPPH⋅ radical scavenging rate determination. Particulars: 50 to 250 μg/mL, FIG. 6. On the procedure:
(§1) The DPPH⋅ radical scavenging rate and ABTS^+⋅ scavenging rate are measured, and the test methods are as follows.
DPPH⋅ radical scavenging rate determination: For each sample solution at different mass concentrations, 0.2 mL is taken and mixed with 0.8 mL of a 60 μmol/L DPPH⋅ solution (prepared with absolute ethanol). The mixture is then reacted for 30 min in the dark, and the absorbance is measured at a wavelength of 517 nm as A1. The absorbance using 70% ethanol solution instead of the sample is measured as A0, and the absorbance using absolute ethanol instead of the DPPH⋅ solution is measured as A2. VC is used as a positive control during the test. The calculation of the DPPH⋅ radical scavenging rate is shown in Formula (2): […]

Series [2] in a line: ABTS+⋅ scavenging rate determination. Particulars: 50 to 250 μg/mL, FIG. 7. On the procedure:
as §1
ABTS^+⋅ scavenging rate determination: ABTS solution (7 mmol/L) and potassium persulfate solution (2.45 mmol/L) are mixed in a 1:1 (v/v) ratio and shaken to prepare the ABTS stock solution, which is allowed to sit at room temperature for 12 h to 16 h (protected from light). Then, the ABTS stock solution is diluted with a phosphate buffer solution of 10 mmol/L and pH 7.4, and the absorbance A0 of the diluted solution is measured at a wavelength of 734 nm, aiming to reach 0.70±0.002. For each sample solution at different mass concentrations, 50 μL is taken and mixed with 750 μL of the ABTS assay solution. The mixture is thoroughly mixed and allowed to react for 6 min. The absorbance is measured at a wavelength of 734 nm as A1, with an absolute ethanol solution used in place of the ABTS solution to measure the absorbance as A2. VC is used as a positive control during the test, and the calculation of the ABTS^+⋅ scavenging rate follows Formula (2).

The subject of the next series is TNF-α. Nature of the series: TPA-induced mouse ear edema model, TNF-α in ear tissue by ELISA. The series is classed as in vivo, mice. Particulars: salt 0.8 mg/ear, mandelic acid 0.39 mg/ear. On the procedure: (§2) TPA-induced mouse ear edema model and administration method. Male KM mice of SPF grade weighing 20 g to 23 g are acclimatized at a temperature of 25° C. and a relative humidity of 40% to 70% for 24 h (12 h each under alternating light and dark conditions), and given sufficient food and water to allow them to eat freely. The mice are randomly divided into 6 groups: blank group (BC), negative control group (NC), positive control group (PC), and 2 treatment groups. […] After 6 h, the mice are immediately killed by breaking their necks. The ear tissues are ground in liquid nitrogen, then ground tissues are transferred to a 4 mL EP tube, and 1 mL of T-PER tissue protein extraction reagent is added. The solution is mixed thoroughly for about 30 min, and then subjected to intermittent sonication for 10 s at 20 Hz, followed by 2 min of ultrasonic treatment to fully lyse the ear tissues. The mixture is centrifuged at 4° C. and 13000 r/min for 20 min. Supernatants are collected to determine the levels of the inflammatory factors IL-1α, TNF-α, and MIP-2 in ear tissues using the ELISA method.
A general note: ELISA stands for enzyme-linked immunosorbent assay.

In series [3] the test system is chick embryo chorioallantoic membrane (CAM). Description: Eye irritation/corrosion chick embryo chorioallantoic membrane assay (irritation score IS). The method, then:
The test method is as follows.
Preparation of CAM: The viability of 9-day-old chick embryos is checked using fertilized eggs. The shell of the air cell is removed using dental serrated forceps to expose the white egg membrane, with care taken to avoid damaging the integrity of the membrane. A drop of 0.9% sodium chloride solution is added with a pipette to moisten the membrane. The inner membrane is carefully removed with forceps, ensuring that the vascular membrane is not damaged. At this point, the structure of the vascular system is observed again, and a judgment is made regarding its integrity and suitability for the test.
Pre-test: Two chick embryos are taken to assess the reactivity of this batch, with the duration of action limited to within 5 min. […]
Reaction evaluation method: 0.3 mL or 0.3 g of the test substance is applied to the CAM, ensuring that at least 50% of the CAM surface is covered by the test substance. The reaction of the CAM is observed, and the time at which each type of toxicity effect appears within 5 min of application is recorded.
The irritation score (IS) is a test conducted using the reaction time method, with the irritation score (IS) calculated using Formula (3), and the results are retained to two decimal places: […]
secH (bleeding time) refers to the average time observed for bleeding to begin on the CAM membrane, measured in seconds(s). secL (vascular lysis time) refers to the average time observed for vascular lysis to begin on the CAM membrane, measured in seconds(s). secC (clotting time) refers to the average time observed for clotting to begin on the CAM membrane, measured in seconds(s).

Another series relates to MIP-2. Description: TPA-induced mouse ear edema model, MIP-2 in ear tissue by ELISA. The series is classed as in vivo, mice. Particulars: salt 0.8 mg/ear, mandelic acid 0.39 mg/ear. The method, then: as §2
The next series concerns IL-1α. Nature of the series: TPA-induced mouse ear edema model, IL-1α in ear tissue by ELISA. In kind it is in vivo, mice. Particulars: salt 0.8 mg/ear, mandelic acid 0.39 mg/ear. On the procedure: as §2
Series [4] can be described thus: Thermogravimetric analysis of thermal decomposition behavior. In kind it is physicochemical. Particulars: heating rate 5.0 K/min, FIG. 2.
For another series, the target named is T1, cellular tyrosinase (Mus musculus, UniProt P11344).
T1 construct: endogenous in cells; host or cells: B16 melanoma cells
T1 sequence (P11344 19-533): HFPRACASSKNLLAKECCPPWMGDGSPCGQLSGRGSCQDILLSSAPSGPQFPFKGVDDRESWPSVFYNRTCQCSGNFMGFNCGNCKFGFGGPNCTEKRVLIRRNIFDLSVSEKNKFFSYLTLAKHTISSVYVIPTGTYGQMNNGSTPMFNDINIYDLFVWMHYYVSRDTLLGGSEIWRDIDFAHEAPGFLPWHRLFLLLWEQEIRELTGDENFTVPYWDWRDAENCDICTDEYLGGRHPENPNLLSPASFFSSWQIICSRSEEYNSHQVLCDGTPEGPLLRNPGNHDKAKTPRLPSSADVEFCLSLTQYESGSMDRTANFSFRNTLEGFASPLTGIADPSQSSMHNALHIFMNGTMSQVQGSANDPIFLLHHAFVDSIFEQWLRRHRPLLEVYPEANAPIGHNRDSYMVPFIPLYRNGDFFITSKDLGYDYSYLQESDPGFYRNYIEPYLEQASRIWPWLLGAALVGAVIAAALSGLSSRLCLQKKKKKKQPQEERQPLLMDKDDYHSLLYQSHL
Description: Cellular tyrosinase activity inhibition assay in B16 cells. The series is classed as cell-based. On the procedure: (§3) And the cellular melanin content, tyrosinase activity, and tyrosinase inhibition rate are tested within a safe concentration.

The next series deals with tyrosinase. Description: In vitro tyrosinase inhibition assay (T-SHRH015-2018). In kind it is biochemical. The following applies: for Cellular tyrosinase activity inhibition (%): in vitro tyrosinase inhibition assay. On the procedure:
as §3

Series [5] relates to melanin synthesis in B16 cells. Description: Inhibition of melanin synthesis in B16 cells (T/SHRH027-2019). The series is classed as cell-based. On the procedure:
as §3

[6] abbreviates: mean of R1-R3, mouse ear tissue 6 h after TPA 2.0 μg/ear.
The mark [7] stands for this setting: mouse ear tissue, 6 h after TPA.
Setting [8] is: replicate R1, mouse ear tissue 6 h after TPA 2.0 μg/ear.
Where [9] appears, read: replicate R3, mouse ear tissue 6 h after TPA 2.0 μg/ear.
Setting [10] is: reaction time method, single chick embryos 1-6, in s.
Setting [11] is: 0.0006%, 0.0012%, 0.002% (m/V), p<0.05 vs blank control.

“And” between values parts separate entries of the source, which are not always exact repeats. Identical values can stand only once.

With `C[S+](C)[O-]` [DMSO], the “Cell viability (%)” value in the series with melanoma cells (B16) is 40.26% and 39.46%.

Regarding `O=C1O[C@H]([C@@H](O)CO)C(O)=C1O` [VC], in series [1], the “DPPH⋅ radical scavenging effect (ranking)” value is on record as “best scavenging effect”. For the same compound, the “ABTS+⋅ scavenging effect (ranking)” value in [2] is “best scavenging effect”.

Turning to `O=C(O)C(O)c1ccccc1` (centres unmarked) [mandelic acid, a-hydroxyphenylacetic acid], the “DPPH⋅ radical scavenging effect (ranking)” value in series [1] is on record as “weakest effect”. Also, the “ABTS+⋅ scavenging effect (ranking)” value in series [2] is recorded as “weakest effect”. Moreover, in the series with TNF-α (setting [6]), the “TNF-α Concentration” value stood at 85.98 µg/mL. For the same compound, the “level of TNF-α compared with the negative control group” value with TNF-α (setting [7]) is given as “decrease”. Further, the “TNF-α concentration, R1” value in the series with TNF-α (setting [8]) came to 85.34 µg/mL. Further, in the series on TNF-α (setting [9]), the “TNF-α concentration, R3” value was found to be 88.27 µg/mL. For the same compound, the irritation classification entry in series [3] (2% aqueous solution of the salt, equivalent molar mandelic acid solution, CAM assay) is on record as “mild irritation”. Also, the “Test result: IS” value in [3] (overall irritation score of 6 chick embryos) was “IS = 1.03”. The Bleeding severity score in series [3] (reaction time method, single chick embryos 1-6) was 301 s. Moreover, in series [3] (setting [10]), the Coagulation score is 301 and 290 and 250; the Vascular lysis score is 260 and 280 and 290 and 301 and 210. Moreover, in the series with MIP-2 (setting [6]), the “MIP-2 Concentration” value was 50.82 µg/mL. The “level of MIP-2 compared with the negative control group” value in the series with MIP-2 (setting [7]) is given as “decrease”. Moreover, in the series on MIP-2 (setting [8]), the “MIP-2 concentration, R1” value amounted to 51.32 µg/mL. Also, the “MIP-2 concentration, R3” value with MIP-2 (setting [9]) came to 50.98 µg/mL. In the series on IL-1α (setting [6]), the “IL-1α Concentration” value was found to be 28.51 µg/mL. In the series with IL-1α (setting [7]), the “level of IL-1α compared with the negative control group” value is recorded as “decrease”. Also, the “IL-1α concentration, R1” value with IL-1α (setting [8]) worked out at 28.59 µg/mL. Further, the “IL-1α concentration, R3” value in the series with IL-1α (setting [9]) came to 29.31 µg/mL. For the same compound, the “temperature at which thermal decomposition behavior begins” value in series [4] was around 135 °C.

Turning to `NC[C@H]1CC[C@H](C(=O)O)CC1` [tranexamic acid], the “temperature at which thermal decomposition behavior begins” value in series [4] was “around 77 °C”.

Consider “supramolecular tranexamic acid-citric acid ionic salt [Comparative Example 1]”, for which the “Cellular tyrosinase activity inhibition (%)” value is 2.17% on cellular tyrosinase (0.0006% m/V); 10.05% at cellular tyrosinase (0.0012% m/V); 11.26% at cellular tyrosinase (0.0020% m/V); 5.36% in the series on tyrosinase (0.625 % m/V); 60.49% in the series on tyrosinase (1.25 % m/V); 65.38% with tyrosinase (2.50 % m/V). Also, the “Cellular tyrosinase activity inhibition (%)” value in the series on tyrosinase (5 % m/V) worked out at 67.57%; in the series on tyrosinase (10 % m/V), 69.99%. Besides, at cellular tyrosinase (setting [11]), the “effect on cellular tyrosinase activity” value is on record as “had an inhibitory effect on cellular tyrosinase activity”. In the series on tyrosinase (in vitro, concentrations of 1.25 to 10% (m/V)), the “inhibition rate on tyrosinase” value was “above 60%”. The “Inhibition rate of cell melanin content (%)” value in [5] (0.0006% m/V) came to 15.32%; in [5] (0.0012% m/V) it was 18.19%; in [5] (0.0020% m/V) it was 22.51%. For the same compound, the “effect on cell melanin synthesis ability” value in [5] (setting [11]) is reported as “had an inhibitory effect on the cell melanin synthesis ability”.
